For 25 compounds, IC50 results are on record in patent publication US12630563B2, “Macrocyclic RIP2-kinase inhibitors” (Oncodesign S.A., priority 2020, dated 2026).

pIC50: −log10 of the molar value. Some results are limits rather than exact numbers.

The target in this assay is T1, recombinant hRIPK2 protein (kinase domain aa 1-299-His-tagged) (Homo sapiens, UniProt O43353).
T1 construct: kinase domain aa 1-299-His-tagged; purchased Life Technologies PR7829A
The assay is described as follows: RIPK2 AlphaLISA assay (displacement of bead-bound CZC-8004 from hRIPK2). Type of assay: binding. The note with it: recombinant hRIPK2 kinase domain 10 nM, 2 h at 23° C. Summed up: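 His-tagged kinase domain (10 nM, as diluted) was mixed with compound (0.8% DMSO), acceptor beads bearing the probe CZC-8004 and Ni2+ donor beads. After 2 h at 23 °C, AlphaLISA signal was read. Loss of signal reflects displacement of the probe from RIPK2.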

T1 sequence (O43353 1-299): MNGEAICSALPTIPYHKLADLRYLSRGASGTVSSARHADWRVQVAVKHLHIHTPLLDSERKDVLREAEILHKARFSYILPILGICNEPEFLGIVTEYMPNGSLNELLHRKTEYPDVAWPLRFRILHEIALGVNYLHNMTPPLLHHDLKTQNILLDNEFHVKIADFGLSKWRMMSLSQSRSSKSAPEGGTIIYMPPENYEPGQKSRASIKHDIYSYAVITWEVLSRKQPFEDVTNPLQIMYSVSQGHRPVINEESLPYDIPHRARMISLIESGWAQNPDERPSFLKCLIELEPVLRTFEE

Consider `CO[C@@H]1C[C@H]2COc3ccn4ncc(c4n3)-c3cc(cc(OC(F)F)c3)NCCN2C1=O` [Example 13, (12R,14S)-4-(difluoromethoxy)-12-methoxy-16-oxa-7,10,20,21,24-pentaazapentacyclo[15.5.2.1^2,6.0^10,^14.0^20,^23]pentacosa-1(23),2,4,6(25),17(24),18,21-heptaen-11-one], for which the pIC50 (commonly −log10 of the IC50, conventionally taken in molar units) is greater than 8.00. In the case of `[2H]C([2H])([2H])Oc1cc2cc(c1)-c1cnn3ccc(nc13)OC[C@@H]1C[C@@H](OCCOC)C(=O)N1CCN2` (racemic) [Example 95, (12R,14S)-4-(^2H3)methoxy-12-(2-methoxyethoxy)-16-oxa-7,10,20,21,24-pentaazapentacyclo[15.5.2.1^2,6.0^10,^14.0^20,^23]pentacosa-1(23),2(25),3,5,17(24),18,21-heptaen-11-one], the negative-log IC50 (pIC50) was greater than 8.00. To `O=C1[C@H](O)C[C@H]2COc3ccn4ncc(c4n3)-c3cc(F)cc(c3)NCCN12` [Example 104, (12R,14S)-4-fluoro-12-hydroxy-16-oxa-7,10,20,21,24-pentaazapentacyclo[15.5.2. 1^2,6.0^10,^14.0^20,^23]pentacosa-1(23),2(25),3,5,17(24),18,21-heptaen-11-one] belongs greater than 8.00. On to `COCCO[C@@H]1C[C@H]2COc3nc4c(cnn4cc3OCC3CC3)-c3cc(cc(OC)c3)NCCN2C1=O` [Example 123, (12R,14S)-18-(cyclopropylmethoxy)-4-methoxy-12-(2-methoxyethoxy)-16-oxa-7,10,20,21,24-pentaazapentacyclo[15.5.2. 1^2,6.0^10,^14.0^20,^23]pentacosa-1(23),2(25),3,5,17(24),18,21-heptaen-11-one], for which the pIC50 is greater than 8.00. Regarding `CO[C@@H]1CC2(C)COc3ccn4ncc(c4n3)-c3cc(F)cc(c3)NCCN2C1=O` (single isomer, unassigned) [Example 85], the pIC50 was 4.96 to 7.00. The same measure for `CCO[C@@H]1C[C@H]2COc3nc4c(cnn4cc3OC)-c3cc(cc(OC)c3)NCCN2C1=O` [Example 132, (12R,14S)-12-ethoxy-4,18-dimethoxy-16-oxa-7,10,20,21,24-pentaazapentacyclo[15.5.2. 1^2,6.0^10,^14.0^20,^23]pentacosa-1(23),2,4,6(25),17(24),18,21-heptaen-11-one]: greater than 8.00; for `COc1cc2cc(c1)-c1cnn3cc(OC)c(nc13)OC[C@@H]1C[C@@H](OC(C)C)C(=O)N1CCN2` [Example 147, (12R,14S)-4,18-dimethoxy-12-(propan-2-yloxy)-16-oxa-7,10,20,21,24-pentaazapentacyclo[15.5.2. 1^2,6.0^10,^14.0^20,^23]pentacosa-1(23),2,4,6(25),17(24),18, 21-heptaen-11-one]: greater than 8.00; for `CO[C@@H]1C[C@H]2COc3nc4c(cnn4cc3C)-c3cc(Cl)cc(c3)NCCN2C1=O` [Example 24, (12R,14S)-4-chloro-12-methoxy-18-methyl-16-oxa-7,10,20,21,24-pentaazapentacyclo[15.5.2.1^2,6.0^10,^14.0^20,^23]pentacosa-1(23),2(25),3,5,17(24),18,21-heptaen-11-one]: greater than 8.00. Consider `CO[C@@H]1C[C@H]2COc3ccn4ncc(c4n3)-c3cc(cc(-c4cn(C)nn4)c3)NCCN2C1=O` [Example 119, (12R,14S)-12-methoxy-4-(1-methyl-1H-1,2,3-triazol-4-yl)-16-oxa-7,10,20,21,24-pentaazapentacyclo[15.5.2.1^2,6.0^1°,^14.0^2°,^23]pentacosa-1(23),2,4,6(25),17(24),18,21-heptaen-11-one], for which the pIC50 is 7.00 to 8.00.

Turning to `COc1cc2cc(c1)-c1cnn3ccc(nc13)OC[C@@H]1C[C@@H](OCC3CC3)C(=O)N1CCN2` [Example 22, (12R,14S)-12-(cyclopropylmethoxy)-4-methoxy-16-oxa-7,10,20,21,24-pentaazapentacyclo[15.5.2.1^2,6.0^10,^14.0^20,^23]pentacosa-1(23),2(25),3,5,17(24),18,21-heptaen-11-one], the pIC50 is greater than 8.00. In the case of `CO[C@@H]1C[C@H]2COc3nc4c(cnn4cc3C)-c3cc(cc(OCc4cnn(C)c4)c3)NCCN2C1=O` [Example 51, (12R,14S)-12-methoxy-18-methyl-4-[(1-methyl-1H-pyrazol-4-yl)methoxy]-16-oxa-7,10,20,21,24-pentaazapentacyclo[15.5.2.1^2,6.0^10,^14.0^20,^23]pentacosa-1(23),2,4,6(25),17(24),18,21-heptaen-11-one], the pIC50 was 4.96 to 7.00. The same measure for `CO[C@@H]1C[C@H]2COc3ccn4ncc(c4n3)-c3cc(cc(-c4cnn(CCO)c4)c3)NCCN2C1=O` [Example 93, (12R,14S)-4-[1-(2-hydroxyethyl)-1H-pyrazol-4-yl]-12-methoxy-16-oxa-7,10,20,21,24-pentaazapentacyclo[15.5.2.1^2,6.0^1°,^14.0^2°,^23]pentacosa-1(23),2,4,6(25),17(24),18,21-heptaen-11-one]: 4.96 to 7.00.

In the case of `CCO[C@@H]1C[C@H]2COc3ccn4ncc(c4n3)-c3cc(C#N)cc(c3)NCCN2C1=O` [Example 23, (12R,14S)-12-ethoxy-11-oxo-16-oxa-7,10,20,21,24-pentaazapentacyclo[15.5.2.1^2,6.0^10,^14.0^20,^23]pentacosa-1(23),2,4,6(25),17(24),18,21-heptaene-4-carbonitrile], the pIC50 is greater than 8.00.

On to `COCCO[C@@H]1C[C@H]2COc3ccn4ncc(c4n3)-c3cc(O)cc(c3)NCCN2C1=O` [Example 97, (12R,14S)-4-hydroxy-12-(2-methoxyethoxy)-16-oxa-7,10,20,21,24-pentaazapentacyclo[15.5.2. 1^2,6.0^10,^14.0^20,^23]pentacosa-1(23),2,4,6(25),17(24),18,21-heptaen-11-one], for which the negative-log IC50 (pIC50) was greater than 8.00.

For `CCOc1cc2cc(c1)-c1cnn3ccc(nc13)OC[C@@H]1C[C@@H](OCC)C(=O)N1CCN2` [Example 28, (12R,14S)-4,12-diethoxy-16-oxa-7,10,20,21,24-pentaazapentacyclo[15.5.2.1^2,6.0^10,^14.0^20,^23]pentacosa-1(23),2(25),3,5,17(24),18,21-heptaen-11-one], the negative-log IC50 (pIC50) was greater than 8.00.

On to `COCCO[C@@H]1C[C@H]2COc3nc4c(cnn4cc3OC)-c3cc(F)cc(c3)NCCN2C1=O` [Example 129, (12R,14S)-4-fluoro-18-methoxy-12-(2-methoxyethoxy)-16-oxa-7,10,20,21,24-pentaazapentacyclo[15.5.2.1^2,6.0^10,^14.0^20,^23]pentacosa-1(23),2,4,6(25),17(24),18,21-heptaen-11-one], for which the negative logarithm of the IC50 (pIC50) is greater than 8.00. The same measure for `CCO[C@@H]1C[C@H]2COc3ccn4ncc(c4n3)-c3cc(Cl)cc(c3)NCCN2C1=O` [Example 20, (12R,14S)-4-chloro-12-ethoxy-16-oxa-7,10,20,21,24-pentaazapentacyclo[15.5.2.1^2,6.0^10,^14.0^20,^23]pentacosa-1(23),2,4,6(25),17(24),18,21-heptaen-11-one]: greater than 8.00.

`COCCO[C@@H]1C[C@H]2COc3nc4c(cnn4cc3OCCN(C)C)-c3cc(cc(OC)c3)NCCN2C1=O` [Example 126, (12R,14S)-18-[2-(dimethylamino)ethoxy]-4-methoxy-12-(2-methoxyethoxy)-16-oxa-7,10,20,21,24-pentaazapentacyclo[15.5.2. 1^2,6.0^10,^14.0^20,^23]pentacosa-1(23),2,4,6(25),17(24),18,21-heptaen-11-one]: the negative-log IC50 (pIC50) is greater than 8.00. For the compound `[2H]C([2H])([2H])Oc1cc2cc(c1)-c1cnn3cc(OC)c(nc13)OC[C@@H]1C[C@@H](OCCOC)C(=O)N1CCN2` [Example 141, (12R,14S)-4-(^2H3)methoxy-18-methoxy-12-(2-methoxyethoxy)-16-oxa-7,10,20,21,24-pentaazapentacyclo[15.5.2.1^2,6.0^10,^14.0^20,^23]pentacosa-1(23),2,4,6(25),17(24),18,21-heptaen-11-one], the negative logarithm of the IC50 (pIC50) is greater than 8.00.

In the case of `CO[C@@H]1C[C@H]2COc3ccn4ncc(c4n3)-c3cc(cc(-n4nc(C)cc4C)c3)NCCN2C1=O` [Example 83, (12R,14S)-4-(3,5-dimethyl-1H-pyrazol-1-yl)-12-methoxy-16-oxa-7,10,20,21,24-pentaazapentacyclo[15.5.2.1^2,6.0^1°,^14.0^2°,^23]pentacosa-1(23),2(25),3,5,17(24),18,21-heptaen-11-one], the pIC50 is greater than 8.00.

As to `CCO[C@H]1C[C@H]2COc3ccn4ncc(c4n3)-c3cc(cc(OC)c3)NCCN2C1=O` [Example 121, (12S,14S)-12-ethoxy-4-methoxy-16-oxa-7,10,20,21,24-pentaazapentacyclo[15.5.2.1^2,6.0^10,^14.0^20,^23]pentacosa-1(23),2,4,6(25),17(24),18,21-heptaen-11-one], the pIC50 is greater than 8.00. Consider `CCO[C@@H]1C[C@H]2COc3ccn4ncc(c4n3)-c3cc(cc(OC)c3)NCCN2C1=O` [Example 6, (12R,14S)-12-ethoxy-4-methoxy-16-oxa-7,10,20,21,24-pentaazapentacyclo[15.5.2.1^2,6.0^10,^14.0^20,^23]pentacosa-1(23),2,4,6(25),17(24),18,21-heptaen-11-one], for which the pIC50 is greater than 8.00. Consider `COCCO[C@@H]1C[C@H]2COc3nc4c(cnn4cc3OC)-c3cc(cc(OC)c3)NCCN2C1=O` (racemic) [Example 117, (12R,14S)-4,18-dimethoxy-12-(2-methoxyethoxy)-16-oxa-7,10,20,21,24-pentaazapentacyclo[15.5.2.1^2,6.0^10,^14.0^20,^23]pentacosa-1(23),2,4,6(25),17(24),18,21-heptaen-11-one], for which the pIC50 is greater than 8.00. Take `COCCOc1cn2ncc3c2nc1OC[C@@H]1C[C@@H](OCCOC)C(=O)N1CCNc1cc(OC)cc-3c1` [Example 137, (12R,14S)-4-methoxy-12,18-bis(2-methoxyethoxy)-16-oxa-7,10,20,21,24-pentaazapentacyclo[15.5.2. 1^2,6.0^10,^14.0^20,^23]pentacosa-1(23),2,4,6(25),17(24),18,21-heptaen-11-one]: the pIC50 was greater than 8.00. On to `COCC1C[C@H]2COc3ccn4ncc(c4n3)-c3cc(F)cc(c3)NCCN2C1=O` (single isomer, unassigned) [Example 31], for which the negative-log IC50 (pIC50) was greater than 8.00.
